6 compounds from US11629171B2, “Beta-hairpin peptidomimetics” (POLYPHOR AG, priority 2017, dated 2023) can be followed below.

Holding throughout (assay type): cell-based
For data set [1], the system named is Enterobacter cloacae 848840. The conditions noted are these: 848840. A digest of the protocol: (§1)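 Standard CLSI microdilution testing: bacterial suspensions standardized against 0.5 McFarland to about 10^6 CFU/mL in MH-II broth meet serially halved peptide concentrations in broth containing 0.002% polysorbate 80; incubation lasts 18-20 h at 35° C before the MIC is scored.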

The test system of data set [2] is Klebsiella pneumoniae 968733. The conditions noted are these: 968733. A digest of the protocol: as §1
Data set [3] deals with Escherichia coli ATCC 25922. The conditions noted are these: ATCC 25922. The gist of the method:
as §1

The subject of data set [4] is Pseudomonas aeruginosa ATCC 27853. The conditions noted are these: ATCC 27853. A digest of the protocol:
as §1

In a further data set the test system is Escherichia coli 926415. The conditions noted are these: 926415. The gist of the method:
as §1

Data set [5] has as its system Acinetobacter baumannii DSM 30008. The note with it: DSM 30008. The gist of the method:
as §1

The test system of data set [6] is Klebsiella pneumoniae SSI #3010. The conditions noted are these: SSI #3010. The gist of the method: as §1
Data set [7] has as its system Acinetobacter baumannii 872842. The conditions noted are these: 872842. The gist of the method: as §1
For data set [8], the system named is human red blood cells (hRBC). The data set can be described thus: Hemolysis. The note with it: red cells of human, 1 h, 200. A digest of the protocol: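 Read-out is supernatant absorbance at 540 nm, normalised to full lysis by 2% Triton X-100 and zero lysis by PBS with 10% water. Peptides (200 μg/mL) were exposed to 20% v/v washed human erythrocytes at 37° C for 1 h under shaking.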

In brackets after ≈: the same amount, converted by molar mass. Where a SMILES comes first, the peptide text is derived from it. Bridges are numbered along the chain shown (N, C = ends). Roman numbers before positions name the chains, in order. [ ]: non-standard residue; d: D form. dDab = NCC[C@@H](N)C(=O)O; hSer = N[C@@H](CCO)C(=O)O; Dab = NCC[C@H](N)C(=O)O; Dap = NC[C@H](N)C(=O)O

What is called MIC is the lowest concentration found to suppress growth. A low value points to a more susceptible organism. Turning to `CC(=O)N[C@H](C(=O)N[C@H]1CCN(C)C(=O)CC[C@@H](C(=O)N[C@@H](CO)C(N)=O)NC(=O)[C@H](C(C)C)NC(=O)[C@H](CO)NC(=O)[C@H](Cc2c[nH]c3ccccc23)NC(=O)[C@H](CO)NC(=O)[C@@H](CCN)NC(=O)[C@H](CCC(=O)N[C@@H](CCN)C(=O)N[C@H](C(=O)N[C@@H](CN)C(=O)N[C@H]2CCNC(=O)[C@H]([C@@H](C)O)NC(=O)[C@H](CCN)NC(=O)[C@H](CCN)NC(=O)[C@H](CC(C)C)NC(=O)[C@@H](CC(C)C)NC(=O)[C@H](CCN)NC2=O)[C@@H](C)O)NC(=O)[C@H](CCN)NC(=O)[C@H](Cc2ccc(O)cc2)NC1=O)C(C)C` [Ex. 303], the MIC in [1] came to 1 µg/mL (≈ 0.413 µM); in [2] it was 1 µg/mL (≈ 0.413 µM); against Escherichia coli 926415, 1 µg/mL (≈ 0.413 µM); in [7] it was 0.5 µg/mL (≈ 0.207 µM). The “Escherichia coli ATCC 25922 MIC” value in data set [3] turned out to be 0.0625 µg/mL. Besides, the “Pseudomonas aeruginosa ATCC 27853 MIC” value in [4] was determined as 0.25 µg/mL. In addition, in [5], the “Acinetobacter baumannii DSM 30008 MIC” value was found to be 0.25 µg/mL. Further, in data set [6], the “Klebsiella pneumoniae SSI #3010 MIC” value was 0.0625 µg/mL. Moreover, the “Hemolysis at 200 μg/mL” value in data set [8] was <1%.
For the compound `CC(C)C[C@@H]1NC(=O)[C@@H](CC(C)C)NC(=O)[C@H](CCN)NC(=O)[C@@H](NC(=O)[C@H](CN)NC(=O)[C@@H](NC(=O)[C@H](CCN)NC(=O)CC[C@@H]2NC(=O)[C@H](CCN)NC(=O)[C@H](Cc3ccc(O)cc3)NC(=O)[C@@H](NC(=O)[C@@H](O)C(C)C)CCN(C)C(=O)C[C@@H](C(=O)N[C@@H](CO)C(N)=O)NC(=O)[C@H](C(C)C)NC(=O)[C@H](CO)NC(=O)[C@H](Cc3c[nH]c4ccccc34)NC(=O)[C@H](CO)NC(=O)[C@@H](CCN)NC2=O)[C@@H](C)O)CCNC(=O)[C@H]([C@@H](C)O)NC(=O)[C@H](CCN)NC(=O)[C@H](CCN)NC1=O` [Ex. 304], the MIC in data set [1] was determined as 2 µg/mL (≈ 0.846 µM); in data set [2], 4 µg/mL (≈ 1.69 µM); against Escherichia coli 926415, 2 µg/mL (≈ 0.846 µM); in data set [7], 1 µg/mL (≈ 0.423 µM). Besides, the “Escherichia coli ATCC 25922 MIC” value in [3] was 0.125 µg/mL. The “Pseudomonas aeruginosa ATCC 27853 MIC” value in [4] was 0.25 µg/mL. For the same compound, the “Acinetobacter baumannii DSM 30008 MIC” value in data set [5] stood at 0.25 µg/mL. Also, the “Klebsiella pneumoniae SSI #3010 MIC” value in data set [6] worked out at 0.0625 µg/mL. Further, the “Hemolysis at 200 μg/mL” value in data set [8] was <1%.
For `CC(=O)N[C@H](C(=O)N[C@H]1CSSC[C@@H](C(=O)N[C@@H](CO)C(N)=O)NC(=O)[C@H](C(C)C)NC(=O)[C@H](CO)NC(=O)[C@H](Cc2c[nH]c3ccccc23)NC(=O)[C@@H](CO)NC(=O)[C@@H](CCN)NC(=O)[C@H](CCC(=O)N[C@@H](CCN)C(=O)N[C@H](C(=O)N[C@@H](CN)C(=O)N[C@H]2CCNC(=O)[C@H]([C@@H](C)O)NC(=O)[C@H](CCN)NC(=O)[C@H](CCN)NC(=O)[C@H](CC(C)C)NC(=O)[C@@H](CC(C)C)NC(=O)[C@H](CCN)NC2=O)[C@@H](C)O)NC(=O)[C@H](CCN)NC(=O)[C@H](Cc2ccc(O)cc2)NC1=O)C(C)C` [Ex. 305] (I: Ac-VCY[Dab]E[dDab][dS]WSVCS-NH2 / II: [Dab]T[Dap][Dab][Dab][dL]L[Dab][Dab]T; disulfide I:2-I:11; amide I:5-II:N; lactam II:4-II:C), the MIC in data set [1] was 0.25 µg/mL (≈ 0.104 µM); in data set [2], 0.25 µg/mL (≈ 0.104 µM); in the data set on Escherichia coli 926415, 0.25 µg/mL (≈ 0.104 µM); in data set [7], 0.125 µg/mL (≈ 0.0521 µM). Further, the “Escherichia coli ATCC 25922 MIC” value in data set [3] stood at 0.0625 µg/mL. Moreover, in data set [4], the “Pseudomonas aeruginosa ATCC 27853 MIC” value stood at 0.125 µg/mL. Moreover, the “Acinetobacter baumannii DSM 30008 MIC” value in data set [5] came out at 0.0625 µg/mL. For the same compound, in data set [6], the “Klebsiella pneumoniae SSI #3010 MIC” value amounted to 0.0625 µg/mL. The “Hemolysis at 200 μg/mL” value in data set [8] was found to be 3%.
As for `CC(=O)N[C@H](C(=O)N[C@H]1CSSC[C@@H](C(=O)N[C@@H](CO)C(N)=O)NC(=O)[C@H](C(C)C)NC(=O)[C@H](CO)NC(=O)[C@H](Cc2c[nH]c3ccccc23)NC(=O)[C@H](CO)NC(=O)[C@@H](CCN)NC(=O)[C@H](CCC(=O)N[C@@H](CCN)C(=O)NCC(=O)N[C@@H](CN)C(=O)N[C@H]2CCNC(=O)[C@H]([C@@H](C)O)NC(=O)[C@H](CCN)NC(=O)[C@H](CCN)NC(=O)[C@H](CC(C)C)NC(=O)[C@@H](CC(C)C)NC(=O)[C@H](CCN)NC2=O)NC(=O)[C@H](CCN)NC(=O)[C@H](Cc2ccc(O)cc2)NC1=O)C(C)C` [Ex. 307] (I: Ac-VCY[Dab]E[dDab]SWSVCS-NH2 / II: [Dab]G[Dap][Dab][Dab][dL]L[Dab][Dab]T; disulfide I:2-I:11; amide I:5-II:N; lactam II:4-II:C), the MIC in data set [1] turned out to be 4 µg/mL (≈ 1.7 µM); in data set [2], 1 µg/mL (≈ 0.425 µM); in the data set on Escherichia coli 926415, 0.5 µg/mL (≈ 0.212 µM); in [7] it was 0.5 µg/mL (≈ 0.212 µM). Also, the “Escherichia coli ATCC 25922 MIC” value in data set [3] was found to be 0.125 µg/mL. Also, the “Pseudomonas aeruginosa ATCC 27853 MIC” value in data set [4] came out at 0.125 µg/mL. In addition, in data set [5], the “Acinetobacter baumannii DSM 30008 MIC” value stood at 0.25 µg/mL. Further, in data set [6], the “Klebsiella pneumoniae SSI #3010 MIC” value turned out to be 0.125 µg/mL. In data set [8], the “Hemolysis at 200 μg/mL” value is recorded as <1%.
Consider `CC(=O)N[C@H](C(=O)N[C@H]1CSSC[C@@H](C(=O)N[C@@H](CO)C(N)=O)NC(=O)[C@H](C(C)C)NC(=O)[C@H](CO)NC(=O)[C@H](Cc2c[nH]c3ccccc23)NC(=O)[C@H](CO)NC(=O)[C@@H](CCN)NC(=O)[C@H](CCC(=O)N[C@@H](CCN)C(=O)N[C@@H](CCO)C(=O)N[C@@H](CN)C(=O)N[C@H]2CCNC(=O)[C@H]([C@@H](C)O)NC(=O)[C@H](CCN)NC(=O)[C@H](CCN)NC(=O)[C@H](CC(C)C)NC(=O)[C@@H](CC(C)C)NC(=O)[C@H](CCN)NC2=O)NC(=O)[C@H](CCN)NC(=O)[C@H](Cc2ccc(O)cc2)NC1=O)C(C)C` [Ex. 308] (I: Ac-VCY[Dab]E[dDab]SWSVCS-NH2 / II: [Dab][hSer][Dap][Dab][Dab][dL]L[Dab][Dab]T; disulfide I:2-I:11; amide I:5-II:N; lactam II:4-II:C), for which the minimum inhibitory concentration (MIC) worked out at 1 µg/mL (≈ 0.417 µM) in [1], 1 µg/mL (≈ 0.417 µM) in [2], 0.5 µg/mL (≈ 0.208 µM) against Escherichia coli 926415 and 0.5 µg/mL (≈ 0.208 µM) in data set [7]. Further, in data set [3], the “Escherichia coli ATCC 25922 MIC” value was 0.0625 µg/mL. Further, the “Pseudomonas aeruginosa ATCC 27853 MIC” value in data set [4] came out at 0.125 µg/mL. For the same compound, in data set [5], the “Acinetobacter baumannii DSM 30008 MIC” value stood at 0.125 µg/mL. For the same compound, the “Klebsiella pneumoniae SSI #3010 MIC” value in data set [6] was found to be 0.25 µg/mL. Also, the “Hemolysis at 200 μg/mL” value in data set [8] is <1%.
In the case of `CC(=O)N[C@H](C(=O)N[C@H]1CSSC[C@@H](C(=O)N[C@@H](CO)C(N)=O)NC(=O)[C@H](C(C)C)NC(=O)[C@H](CO)NC(=O)[C@H](Cc2c[nH]c3ccccc23)NC(=O)[C@H](CO)NC(=O)[C@@H](CCN)NC(=O)[C@H](CCC(=O)N[C@@H](CCN)C(=O)N[C@H](C(=O)N[C@@H](CN)C(=O)N[C@H]2CCNC(=O)[C@H]([C@@H](C)O)NC(=O)[C@H](CCN)NC(=O)[C@H](CCN)NC(=O)[C@H](C(C)C)NC(=O)[C@@H](CC(C)C)NC(=O)[C@H](CCN)NC2=O)[C@@H](C)O)NC(=O)[C@H](CCN)NC(=O)[C@H](Cc2ccc(O)cc2)NC1=O)C(C)C` [Ex. 312] (I: Ac-VCY[Dab]E[dDab]SWSVCS-NH2 / II: [Dab]T[Dap][Dab][Dab][dL]V[Dab][Dab]T; disulfide I:2-I:11; amide I:5-II:N; lactam II:4-II:C), the minimal inhibitory concentration (MIC) in [1] turned out to be 0.0625 µg/mL (≈ 0.0262 µM); in data set [2], 0.125 µg/mL (≈ 0.0524 µM); in the data set with Escherichia coli 926415, 0.25 µg/mL (≈ 0.105 µM); in data set [7], 0.0625 µg/mL (≈ 0.0262 µM). Further, in [3], the “Escherichia coli ATCC 25922 MIC” value is 0.03125 µg/mL. Besides, the “Pseudomonas aeruginosa ATCC 27853 MIC” value in data set [4] is 0.125 µg/mL. Also, the “Acinetobacter baumannii DSM 30008 MIC” value in [5] turned out to be 0.03125 µg/mL. For the same compound, in data set [6], the “Klebsiella pneumoniae SSI #3010 MIC” value amounted to 0.0625 µg/mL. The “Hemolysis at 200 μg/mL” value in data set [8] is <1%.
